# Key:
# [1] = standard, in THF; cited from earlier work
# HeLa cells [2] = test: cell index, real-time cell analysis system; type: cell-based, human; settings: 72 hours
# Description: In the present invention, the cell index parameter was evaluated by means of using a real-time cell analysis system in order to both support the results obtained and to determine the types of cell death, and an E-Plate with 16 wells was used in order to evaluate this parameter. Primarily, 100 µl of growth medium was added to each well of the E-Plate, and background measurements were taken in the cell analyzer device. Then, cultivation is performed in each well such that the 100 µl of growth medium has 6000 cells for HeLa cells. The E-Plates were incubated for 20 minutes in a sterile working cabinet at room temperature, and then placed in the cell analyzer device and incubation was continued at 37°C under ambient conditions of 5% carbon dioxide (CO2) after the cultivation process. The cell analyzer was issued a command to take the measurement every 15 minutes after the cell cultivation to the E-Plates was performed. After approximately 24 hours of cell cultivation, the growth medium in the E-Plates was changed with a growth medium containing different concentrations of In(III)Pc complex at the 1/3rd slice of the proliferation phase of the cells, and measurements were continued at 15-minute intervals for 72 hours. Subsequently, graphics of concentration and time-dependent cell index values were transferred to the computer screen. The antiproliferative effects of the In(III)Pc complex on HeLa cells are observed when the cell index values obtained from the real-time cell analysis system are examined.
# HeLa cells [3] = test: proliferation rate analysis (MTT, mitochondrial dehydrogenase enzyme activity); type: cell-based, human; settings: for absorbance values / viability of cells: 24 hours; for absorbance values: MTT, 570 nm with reference to 690 nm, control group 590×10^-3; for viability of cells: control group considered 100%
# Description: Different concentrations of In(III)Pc complex were applied to cultured human cervical cancer originated HeLa cells for 24 hours in order to determine the changes in mitochondrial dehydrogenase enzyme activity of cancer cells by means of the In(III)Pc complex obtained. For proliferation rate analysis, routinely cultured HeLa cells were cultivated in culture plates with 96 wells such that the growth medium is 3×10^4 cell/ml per well. In(III)Pc complex prepared at 50 µM, 100 µM, and 150 µM concentrations were applied to the cells after waiting for the cells to adhere and spread. The growth medium in the wells was withdrawn and 40 µl of 3-(4,5-dimethylthiazol-2-yl)-2,5-diphenyltetrazolium bromide (MTT) (5mg/ml) was added at the end of the experiment periods. 160 µl of dimethyl sulfoxide (DMSO) was added to the wells with MTT and incubated for 1 hour in a shaker incubator after waiting for approximately 4 hours. The absorbance values of the formed experimental groups were carried out by means of the spectrophotometer measurements at 570 nm with reference to the 690 nm wavelength after the formazan crystals formed are dissolved for the 1 hour incubation period. The absorbance values obtained as a result of this application were measured as 590×10^-3 for the control group; 460 ×10^-3 for 50 µM; 280 ×10^-3 for 100 µM, and 170 ×10^-3 for 150 µM.
# [4] = solubility in common solvents; type: physicochemical; settings: chloroform, acetone, THF, ethanol, methanol, DMF or DMSO
# Description: The compound obtained by means of the aforementioned method is in the form of a dark green crystal, and the yield thereof is 82 mg (16,14%). The closed formula of Compound 2, which has a melting point >300°C is C89H99InN8O6, and its molecular weight is 1491,61 g/mol. It has been determined that C, 71.66; H, 6.69; […]; N, 7.51; O, 6.44 when the theoretical elemental analysis of the compound was performed. FTIR analysis was conducted in order to shed light upon the structure of said Compound 2 and it is illustrated in Figure 3. […] Table 1. The solubility data of the In(III) Pc compound.
# [5] = singlet oxygen quantum yield (DPBF quencher, ZnPc standard); type: physicochemical; settings: irradiated in the Q band area, room conditions, Figure 7
# Description: Singlet oxygen quantum yields of the inventive Compound 2 were calculated by means of Zinc (II) phthalocyanine (ZnPc) standard and 1,3-diphenylisobenzofuran (DPBF) singlet oxygen quencher at room conditions via using Equation-2 below: ΦΔ = ΦΔ^Std .(RDPBF .Iabs^Std)/(RDPBF^Std .Iabs) [formula] wherein, • Φ^StdΔ; the singlet oxygen yield (ZnPc ΦΔ = 0,53 in THF) • ΦΔ; for example, singlet oxygen yield, • RDPBF; the degradation rate of DPBF in the presence of the sample, • ROPBFstd; the degradation rate of DPBF in the presence of the standard, • Iabs; the light absorption rate of sample and standard, • IabStd; the light absorption rate of the standard.
# DPBF with a concentration of […] was used in order to prevent chain reactions caused by the presence of singlet oxygen. Solutions of a sensitizer containing DPBF (absorbance at irradiation wavelength = 2.0) were prepared in a dark environment and irradiated in the Q band area by means of using the setup described above. This yield was found as 49%, according to Figure 7. […]
# HeLa cells [6] = test: mitotic index (Feulgen method, Giemsa staining); type: cell-based, human; settings: 100 µM
# Description: As a result of applying the optimum concentration of the product(100 µM) on HeLa cells for 0-72 hours, the preparations prepared according to the experimental groups were primarily hydrolyzed with 1 N hydrochloric acid (HCl) at room temperature for 1 minute and then with 1 N HCl at 60°C for 10 minutes in order to determine the effects on the mitotic index values of the cells. After hydrolysis, the Feulgen method was applied to the preparations for 1 hour. Then, these preparations were washed 3 times for 2 minutes with a washing solution, which is specific to the Feulgen method, and air-dried. After the preparations were dried, they were prepared for counting by means of staining with Giemsa dye for 2 minutes. Late prophase, metaphase, anaphase, and telophase stages were counted in order to determine the mitosis index (MI) values of said preparations. The early prophase stage was evaluated together with this stage, as it was morphologically similar to the cells in the interphase group.
# Three preparations were evaluated for each experimental group and mitosis index values were determined by means of counting 3000 cells on average from each preparation. The mitosis index values have been decreased from 6% to 3,7% at the 24th hour; from 6,68% to 2,21% at the 48th hour, and from 7,56% to 1,19% at the 72nd hour.
# [7] = photodegradation quantum yield under irradiation; type: physicochemical
# Description: DPBF with a concentration of […] was used in order to prevent chain reactions caused by the presence of singlet oxygen. Solutions of a sensitizer containing DPBF (absorbance at irradiation wavelength = 2.0) were prepared in a dark environment and irradiated in the Q band area by means of using the setup described above. This yield was found as 49%, according to Figure 7. The maximum absorbance of the Q band in the solutions of all complexes was set to 1.0 in the solvent used in order to determine the photodegradation quantum yield (Φd), and the decrease in the intensity of the Q band under irradiation with time is observed by means of using the following Equation-3: Φd = ((C0−Ct).V.NA)/(Iabs .S.t) [formula] wherein, • C0 (mol.dm^-3); concentration of Compound 2 before irradiation, • Ct (mol.dm^-3); concentration of Compound 2 […]; reaction volume (3.0 cm^3), • S; irradiated cell area, • t; irradiation time, • NA; Avogadro's number, • Iabs; the overlapping integration of the radiation source intensity. […] It has been observed that Compound 2 is active in destroying cancer cells, and as such may have a potential for the treatment of cancer with PDT when considering the PDT characteristic measurement results described above.
molecule,measurement,setting,value
"[Zn+2].c1ccc2c(c1)-c1nc-2nc2[n-]c(nc3nc([n-]c4nc(n1)-c1ccccc1-4)-c1ccccc1-3)c1ccccc21 [ZnPc, Zinc (II) phthalocyanine]",singlet oxygen yield ΦΔ,[1],"0,53"
"1,8(11), 15(18),22(25)-tetra-(3,5-di-tert-butylphenoxy) indium (III) phthalocyanine [Compound 2]",effect on cell index values compared with standard curves,HeLa cells [2]; 50 µM,does not show a significant effect
same,effect on cell index values compared with standard curves,HeLa cells [2]; 100 µM (optimum concentration),DNA damaging effect
same,effect on cell index values compared with standard curves,"HeLa cells [2]; 100 µM (optimum concentration), listed as In(III)Pc complex",DNA damage
same,effect on cell index values compared with standard curves,HeLa cells [2]; 150 µM,cytoskeletal effect
same,absorbance values,HeLa cells [3]; 50 µM,460 ×10^-3
same,viability of cells,HeLa cells [3]; 50 µM,78%
same,death of the cells,HeLa cells [3]; 100 µM,52.55%
same,absorbance values,HeLa cells [3]; 100 µM,280 ×10^-3
same,viability of cells,HeLa cells [3]; 100 µM,47.45%
same,absorbance values,HeLa cells [3]; 150 µM,170 ×10^-3
same,viability of cells,HeLa cells [3]; 150 µM,28.81%
same,IC50,"HeLa cells [3]; HeLa cells, read-out: IC50 concentration",100 µM
same,solubility,[4],capable of getting dissolved in common solvents
same,singlet oxygen yield,[5],49%
same,mitosis index values,"HeLa cells [6]; 24th hour, decreased from 6%","3,7%"
same,mitosis index values,"HeLa cells [6]; 48th hour, decreased from 6,68%","2,21%"
same,mitosis index values,"HeLa cells [6]; 72nd hour, decreased from 7,56%","1,19%"
same,photodegradation quantum yield (Φd),"[7]; Q band absorbance set to 1.0, irradiation with time","2,0017×10^-05"
same,stability under the light,[7]; from the photodegradation quantum yield,stable under the light

# Reference: patent publication EP4048709B1, “A DRUG FOR THE TREATMENT OF CERVICAL CANCER” (Yildiz Teknik Universitesi, priority 2020, dated 2022)
